Results from publication PMC7281072 (Cancers, 2020).

What was measured:
ERK1,2 phosphorylation [1] = assay: ERK1/2 phosphorylation ELISA, OVCAR-3 cells; type: cell-based, human; details: for Vmax ± SE, pERK 1/2 inhibition: Michaelis Menten model; for IC50: Homo sapiens, read-out: IC50, pERK 1/2 inhibition
AKT1,2 phosphorylation [2] = assay: AKT phosphorylation ELISA, UWB1.289 cells; type: cell-based, human; details: for Vmax ± SE, pAKT 1/2 inhibition: Michaelis Menten model; for IC50: Homo sapiens, read-out: IC50, pAKT 1/2 inhibition
[3] = tested on: UWB1.289 cancer cell line
ERK1,2 phosphorylation [4] = assay: ERK1/2 phosphorylation ELISA, OVCAR-5 cells; type: cell-based, human; details: for Vmax ± SE, pERK 1/2 inhibition: Michaelis Menten model; for IC50: Homo sapiens, read-out: IC50, pERK 1/2 inhibition
AKT1,2 phosphorylation [5] = assay: AKT phosphorylation ELISA, OVCAR-5 cells; type: cell-based, human; details: for Vmax ± SE, pAKT 1/2 inhibition: Michaelis Menten model; for IC50: Homo sapiens, read-out: IC50, pAKT 1/2 inhibition
[6] = tested on: OVCAR-5 human ovarian adenocarcinoma xenograft; parameters: species or system CB17 SCID mice; details: mouse, in vivo
AKT1,2 phosphorylation [7] = assay: AKT phosphorylation ELISA, OVCAR-3 cells; type: cell-based, human; details: for Vmax ± SE, pAKT 1/2 inhibition: Michaelis Menten model; for IC50: Homo sapiens, read-out: IC50, pAKT 1/2 inhibition
AKT1,2 phosphorylation [8] = assay: AKT phosphorylation ELISA, UWB1.289+BRCA1 cells; type: cell-based, human; parameters: Vmax ± SE, pAKT 1/2 inhibition: unit not given beside the values; details: for Vmax ± SE, pAKT 1/2 inhibition: Michaelis Menten model; for IC50: Homo sapiens, read-out: IC50, pAKT 1/2 inhibition
[9] = tested on: UWB1.289 cancer cell line; assay: cells; details: Homo sapiens, UWB1289, 48 h
ERK1,2 phosphorylation [10] = assay: ERK1/2 phosphorylation ELISA, SK-OV-3 cells; type: cell-based, human; details: for Vmax ± SE, pERK 1/2 inhibition: Michaelis Menten model; for IC50: Homo sapiens, read-out: IC50, pERK 1/2 inhibition

C[C@]12CC[C@H]3[C@@H](CCC4=CC(=O)NCC[C@@]43C)[C@@H]1CC[C@@H]2OC(=O)CCOc1ccc(N(CCCl)CCCl)cc1 [ENGA-L06E, 5a,7a-dimethyl-2-oxo-2,3,4,5,5a,5b,6,7,7a,8,9,10,10a,10b,11,12-hexa decahydrocyclopenta [5, 6] naphtho [1,2-d] azepin-8-yl 3-(4-(bis(2-chloroethyl)amino)phenoxy) propanoate]
Vmax ± SE, pERK 1/2 inhibition (ERK1,2 phosphorylation [1]; 15 min): 53.57 ± 3.41 | Vmax ± SE, pERK 1/2 inhibition (ERK1,2 phosphorylation [1]; 30 min): 80.62 ± 1.98 | Vmax ± SE, pERK 1/2 inhibition (ERK1,2 phosphorylation [1]; 60 min): 93.91 ± 3.61 | IC50 (ERK1,2 phosphorylation [1]; 0.25 h, 15 min): 49 µM | IC50 (ERK1,2 phosphorylation [1]; 0.5 h, 30 min): 14.5 µM | IC50 (ERK1,2 phosphorylation [1]; 1 h, 60 min): 12.8 µM | Vmax ± SE, pAKT 1/2 inhibition (AKT1,2 phosphorylation [2]; 15 min): 62.12 ± 1.41 | Vmax ± SE, pAKT 1/2 inhibition (AKT1,2 phosphorylation [2]; 30 min): 64.94 ± 4.22 | Vmax ± SE, pAKT 1/2 inhibition (AKT1,2 phosphorylation [2]; 60 min): 71.12 ± 3.34 | IC50 (AKT1,2 phosphorylation [2]; UWB1289, 0.25 h, 15 min): 16.9 µM | IC50 (AKT1,2 phosphorylation [2]; UWB1289, 0.5 h, 30 min): 14.4 µM | IC50 (AKT1,2 phosphorylation [2]; UWB1289, 1 h, 60 min): 11.8 µM | TGI (Total Growth Inhibition) [3]: 8 ± 0.8 μΜ | Vmax ± SE, pERK 1/2 inhibition (ERK1,2 phosphorylation [4]; 15 min): 68.95 ± 3.21 | Vmax ± SE, pERK 1/2 inhibition (ERK1,2 phosphorylation [4]; 30 min): 74.99 ± 2.47 | Vmax ± SE, pERK 1/2 inhibition (ERK1,2 phosphorylation [4]; 60 min): 80.67 ± 1.52 | IC50 (ERK1,2 phosphorylation [4]; 0.25 h, 15 min): 20 µM | IC50 (ERK1,2 phosphorylation [4]; 0.5 h, 30 min): 14.1 µM | IC50 (ERK1,2 phosphorylation [4]; 1 h, 60 min): 9.18 µM | TGI (Total Growth Inhibition) (OVCAR-3 cancer cell line): 32 ± 1.8 μΜ | Vmax ± SE, pAKT 1/2 inhibition (AKT1,2 phosphorylation [5]; 15 min): 57.76 ± 3.49 | Vmax ± SE, pAKT 1/2 inhibition (AKT1,2 phosphorylation [5]; 30 min): 59.24 ± 0.49 | Vmax ± SE, pAKT 1/2 inhibition (AKT1,2 phosphorylation [5]; 60 min): 62.49 ± 0.25 | IC50 (AKT1,2 phosphorylation [5]; 0.25 h, 15 min): > 50 µM | IC50 (AKT1,2 phosphorylation [5]; 0.5 h, 30 min): 49.8 µM | IC50 (AKT1,2 phosphorylation [5]; 1 h, 60 min): 29.5 µM | Median Overall Survival (OS) [6]: 98 days | Progression Free Survival (PFS) [6]: 27 days | Response Rate (RR) [6]: 100% | Cures (mice alive for 120 days after tumor inoculation) ([6]; ip): 0/5 | MST (mean survival time) ([6]; ip): 93.2 ± 2.4 p < 0.01 Days | T/C% (mean survival time of treated versus saline controls) ([6]; ip): 184.8% | TI% (Tumor Inhibition) ([6]; ip): 117.0% | size of the primary tumor ([6]; ip): 220 ± 19.1 mm^3 | Vmax ± SE, pAKT 1/2 inhibition (AKT1,2 phosphorylation [7]; 15 min): 57.71 ± 5.51 | Vmax ± SE, pAKT 1/2 inhibition (AKT1,2 phosphorylation [7]; 30 min): 60.76 ± 2.97 | Vmax ± SE, pAKT 1/2 inhibition (AKT1,2 phosphorylation [7]; 60 min): 62.20 ± 5.12 | IC50 (AKT1,2 phosphorylation [7]; 0.25 h, 15 min): 29.1 µM | IC50 (AKT1,2 phosphorylation [7]; 0.5 h, 30 min): 24.4 µM | IC50 (AKT1,2 phosphorylation [7]; 1 h, 60 min): 18.3 µM | TGI (Total Growth Inhibition) (OVCAR-5 cancer cell line): 42 ± 2.8 μΜ | Vmax ± SE, pAKT 1/2 inhibition (AKT1,2 phosphorylation [8]; 15 min): 59.78 ± 4.67 | Vmax ± SE, pAKT 1/2 inhibition (AKT1,2 phosphorylation [8]; 30 min): 57.10 ± 3.38 | Vmax ± SE, pAKT 1/2 inhibition (AKT1,2 phosphorylation [8]; 60 min): 63.12 ± 4.19 | IC50 (AKT1,2 phosphorylation [8]; 0.25 h, 15 min): 44.4 µM | IC50 (AKT1,2 phosphorylation [8]; 0.5 h, 30 min): 40.3 µM | IC50 (AKT1,2 phosphorylation [8]; 1 h, 60 min): 25.8 µM | GI50 ([9]; read-out: GI50 (50% Growth Inhibition)): 3.5 ± 0.4 µM | IC50 ([9]; read-out: IC50 (cytotoxic effect)): 20 ± 1.1 µM | TGI (Total Growth Inhibition) (SK-OV-3 cancer cell line): 52 ± 3.3 μΜ | Vmax ± SE, pERK 1/2 inhibition (ERK1,2 phosphorylation [10]; 15 min): 79.14 ± 2.62 | Vmax ± SE, pERK 1/2 inhibition (ERK1,2 phosphorylation [10]; 30 min): 82.95 ± 1.69 | Vmax ± SE, pERK 1/2 inhibition (ERK1,2 phosphorylation [10]; 60 min): 84.71 ± 1.60 | IC50 (ERK1,2 phosphorylation [10]; 0.25 h, 15 min): 13 µM | IC50 (ERK1,2 phosphorylation [10]; 0.5 h, 30 min): 11 µM
